According to EP1076064A1, “NOVEL ASPARTAME DERIVATIVE CRYSTAL AND PROCESS FOR PRODUCING THE SAME” (Ajinomoto Co., Inc., priority 1998, dated 1999):

How the values were obtained:
[1] = Measurement of the dissolution rate for the dried crystals (dissolution tester); type: physicochemical; details: 0.5 g crystals in 900 ml ion exchanged water kept at 20 °C, stirring 100 rpm
Protocol: The dissolution rates of the A-type crystals (Reference Example 4 (b)) and the D-type crystals (Example 1) were determined in the following method. The apparatus used was "DISSOLUTION TESTER" (NTR-6100) manufactured by Toyama Sangyo K. K. 0.5 g each of the A-type crystals and D-type crystals were introduced into 900 ml ion exchanged water kept at 20 °C at a stirring in the number of revolution of 100 rpm, and the time which elapsed until the crystals came to be completely dissolved was measured.

[2] = cited from earlier work

time which elapsed until the crystals came to be completely dissolved [1]	Structure (SMILES)	efficacy of sweetness relative to Aspartame ([2]; in weight ratio, versus Aspartame)	efficacy of sweetness relative to sucrose (table sugar) ([2]; versus sucrose (table sugar))
about 5 minutes	COC(=O)[C@H](Cc1ccccc1)NC(=O)[C@H](CC(=O)O)NCCC(C)(C)C [D-type crystals, N-[N-(3,3-dimethylbutyl)-L-α-aspartyl]-L-phenylalanine methyl ester]	–	–
–	COC(=O)[C@H](Cc1ccccc1)NC(=O)[C@H](CC(=O)O)NCCC(C)(C)C [N-(3,3-dimethylbutyl)-APM, N-[N-(3,3-dimethylbutyl)-L-α-aspartyl]-L-phenylalanine methyl ester]	at least 50 times	about 10,000 times
about 35 minutes	COC(=O)[C@H](Cc1ccccc1)NC(=O)[C@H](CC(=O)O)NCCC(C)(C)C [A-type crystals, N-[N-(3,3-dimethylbutyl)-L-α-aspartyl]-L-phenylalanine methyl ester, reference compound]	–	–
